Series [1] concerns the target T1, human recombinant PARG (AA 389-976) (Homo sapiens, UniProt Q86W56).
T1 construct: His-tagged human recombinant PARG (AA 389-976) was coupled to a CM5 biosensor chip; made in house; host or cells: E. coli BL21 (DE3), pET28a
The series can be described thus: Surface plasmon resonance (SPR) direct binding. For orientation: In SPR one partner is held on a chip, and binding of the other changes the refractive index at the surface.

The test system of series [2] is HCC1806 cells. Nature of the series: 6-day growth assay, Compound 1 in combination with exatecan. It is filed as cell-based. Particulars: Homo sapiens. The method, then: (§1) The activity of Compound 1 in combination with exatecan was evaluated in the HCC1954, HCC1806, and GP2D cancer cell lines in a 6-day growth assay. HCC1954 (Cat #CRL-2338) and HCC1806 (Cat #CRL-2335) cells were obtained from American Type Culture Collection (ATCC) and maintained in ATCC modified RPMI (Cat #30-2001)+10% FBS (Cat #A3160502)+1% penicillin/streptomycin (Cat #15140-122) in a humidified incubator at 37° C., 5% CO2. GP2D cells were obtained from ECACC (Cat #95090714-1VL) and maintained in DMEM+GlutaMAX (Cat #10566-016)+10% FBS (Cat #A3160502)+1% penicillin/streptomycin (Cat #15140-122). Cells were seeded at 2,500 cells/well (HCC1954 and GP2D) or 2,000 cells/well (HCC1806) in 100 μL of growth medium in a 96-well plate (Corning costar Cat #3603) and allowed to adhere overnight at 37° C. with 5% CO2. The next day, serial dilutions of Compound 1 and exatecan were prepared and added to the corresponding wells of a 96-well plate. A solution of 0.1% DMSO in medium was used as the negative control. Cells were incubated with compound for 6 days at 37° C. with 5% CO2, then fixed, stained, and counted as described in Example 3. Concentration response-curves and IC50 values were generated by non-linear regression analysis using a 4-parameter variable slope fit in GraphPad Prism 10 software. Potential synergy between Compound 1 and exatecan was assessed using Zero interaction potency (ZIP), Highest Single Agent (HSA), Bliss, and Loewe synergy models to find the most synergistic area score, where scores >10 indicate that the interaction between the two drugs is likely to be synergistic (Ianevski et al. 2020).

Series [3] relates to HCC1954 cells. The description is as above. The settings on record: Homo sapiens. The class given is cell-based. The procedure:
as §1

Series [4] has as its system OCM.246 cells. The series can be described thus: 6-day proliferation of patient-derived ovarian cancer model, nuclei count. It is filed as cell-based, human. The method, then:
(§2) Ex vivo ovarian cancer models (OCMs) were established from the ascites of high-grade serous ovarian cancer patients (Coulson-Gilmer, 2021, J Exp Clin Cancer Res) and grown in vitro as 2D cell lines. OCMs were cultured in an incubator at 37° C. in 5% CO2 in OCMI media.
(§3) Compound 1 IC50 values for inhibition of cell proliferation were determined by imaging and counting the number of nuclei after compound treatment. Cells were harvested with trypsin (Thermo Fisher Scientific, Waltham, MA, USA, Cat #25200-056) and plated in Sarstedt 96-well Cell+ Tissue Culture Plates (Thermo Fisher Scientific, Waltham, MA, USA, Cat #NC9624222) at 5,000 cells/well (OCM.109) or 10,000 cells/well (OCM.246) in 100 μL of OCMI medium and incubated overnight at 37° C., 5% CO2. The following day, 1000× Compound 1 and niraparib concentration curves were prepared by serial dilution in 100% DMSO. The 1000× concentration was diluted 1:200 into growth media to generate a 5× concentration curve in 0.5% DMSO/growth medium before addition of 25 μL of the 5× compound to the wells. Control wells received 25 μL of 0.5% DMSO in media or 10 μM of Compound 1. The plates were mixed and incubated for 6 days at 37° C., 5% CO2 before fixing and staining the cells for nuclei counting as described in Example 3.
(§4) Four fields in each well were acquired using the DAPI channel at 10× magnification. Using high-content software (Cell Reporter Xpress), the nuclei were detected and counted. The percent proliferation after treatment was determined by normalizing the number of nuclei in the treated wells to the DMSO and 10 μM Compound 1 control wells. Concentration response curves and IC50 values for percent inhibition of proliferation were generated by non-linear regression analysis using a least squares fit of the log (inhibitor) vs. response-Variable slope (four parameters) curve using GraphPad Prism 10 software (GraphPad Software, Boston, MA, USA).

Series [5] deals with OCM.109 cells. Described as above. It is filed as cell-based, human. The method, then:
as §2, §3, §4

Series [6] concerns T025OV ovarian cancer patient-derived xenograft. Nature of the series: T025OV ovarian cancer PDX model. The settings on record: 75 mg/kg BID, 50 days. The class given is in vivo, NOG mice. The method, then: tissue from a treatment naïve patient with Stage 1 serous ovarian cancer was obtained from Discovery Life Sciences (Huntsville, AL, Case ID #200000835) and was expanded by subcutaneous implantation into female NOG mice. For tumor development, mice were inoculated subcutaneously on the right flank with isolated […] cells at 1×10^6 viable cells per mouse in 0.2 mL of DPBS mixed with Matrigel® Growth Factor Reduced Basement Membrane Matrix (1:1 ratio) (Corning®, Tewksbury, MA, USA, Cat #356237). Groups were established and drug treatment initiated when the mean tumor volume reached approximately 140-150 mm^3. […] For all studies, tumor volumes and body weights were measured twice weekly. […] Statistical analysis of end-of-study mean tumor volumes for the […] model was performed using an unpaired t-test with Welch's correction.

For series [7], the target named is T2, human recombinant PARG (Homo sapiens, UniProt Q86W56).
T2 construct: Human PARG (amino acids 389-976; Uniprot ID Q86W56-1); 6xHis (N, cleaved yes); TEV cleavage site (N, cleaved yes); made in house; host or cells: PARG: E. coli BL21 (DE3); PARP1 substrate: High Five insect cells (baculovirus)
Nature of the series: HTRF assay of PARG enzymatic activity with PARylated-PARP1 substrate. The class given is biochemical. Particulars: geometric mean, n=14.

Setting [8] is: Homo sapiens, 144 h, read-out: IC50 inhibition of proliferation.

Here are results for 1 compound from patent US20260272936A1, “TREATMENT OF CANCER WITH A PARG INHIBITOR” (858 Therapeutics, Inc., priority 2023, published 2026).

As usually defined, the Kd is the free concentration of one partner at which half of the binding sites on the other are occupied at equilibrium, for simple one-to-one binding.

Each structure is given as a SMILES string. A value given as a limit tells only on which side of the number the result lay.

T1 sequence (Q86W56 389-976): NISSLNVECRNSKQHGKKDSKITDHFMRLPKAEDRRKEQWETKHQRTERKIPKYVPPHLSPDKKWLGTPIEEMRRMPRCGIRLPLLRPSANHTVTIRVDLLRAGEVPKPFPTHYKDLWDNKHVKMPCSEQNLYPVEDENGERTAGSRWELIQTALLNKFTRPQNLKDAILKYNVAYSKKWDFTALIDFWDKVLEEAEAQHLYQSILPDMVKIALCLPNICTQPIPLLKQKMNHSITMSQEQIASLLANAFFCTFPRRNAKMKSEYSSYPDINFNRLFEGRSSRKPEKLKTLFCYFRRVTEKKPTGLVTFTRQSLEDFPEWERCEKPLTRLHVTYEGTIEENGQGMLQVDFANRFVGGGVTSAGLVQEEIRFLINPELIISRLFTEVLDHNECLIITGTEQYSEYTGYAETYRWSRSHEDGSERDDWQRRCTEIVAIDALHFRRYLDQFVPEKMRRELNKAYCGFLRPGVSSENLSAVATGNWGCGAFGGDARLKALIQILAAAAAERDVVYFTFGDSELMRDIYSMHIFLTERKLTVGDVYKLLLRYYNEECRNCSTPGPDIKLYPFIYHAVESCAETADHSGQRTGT
T2 sequence (Q86W56 389-976): as above

Take `[2H]C([2H])(c1cnn(C)c1)N1C(=O)c2cc(S(=O)(=O)NC3(C)CC3)ccc2N2C1=NC[C@H]2C` [Compound 1, (R)-1-methyl-4-((1-methyl-1H-pyrazol-4-yl)methyl-d2)-N-(1-methylcyclopropyl)-5-oxo-1,2,4,5-tetrahydroimidazo[1,2-a]quinazoline-7-sulfonamide]: the Kd in series [1] (SPR kinetic KD, 1:1 binding, 25° C., mean n=2) was found to be 1.1 nM. In series [1] (relative amount of PARG bound by Compound 1), the “Rmax (Relative Units)” value came out at 15.9 Relative Units. Moreover, the “Theoretical Rmax” value in series [1] (total amount of PARG immobilized on the biosensor chip) is reported as 19.8. For the same compound, the IC50 in series [2] (exatecan 0.001 nM) was 1900 nM; in series [2] (exatecan 0.01 nM), 1500 nM; in series [2] (exatecan 0.03 nM), 1200 nM; in series [2] (exatecan 0.1 nM) it was 300 nM; in series [3] (exatecan 0.001 nM), 6900 nM; in series [3] (exatecan 0.01 nM), 7200 nM. Also, the IC50 was 6600 nM in series [3] (exatecan 0.03 nM); 5200 nM in series [3] (exatecan 0.1 nM); 900 nM in series [3] (exatecan 0.3 nM); 162 nM in series [4] (setting [8]); 51 nM in series [5] (setting [8]); 85 nM in series [7]. Besides, the “potency better than niraparib” value is over 20 fold in series [4] (OCM.246) and over 80 fold in series [5] (OCM.109). In addition, in series [6], the “mean decrease in body weight” value came out at 4.6%.
